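1) Cells in 96-well plates. 2) Compound, 48 h, 5 concentrations. 3) Linear interpolation between surrounding doses. 4) Unreached endpoint = highest concentration. The concentration for 50% growth inhibition is given as GI50.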 Activity calls are given as the source filed them. Cut-off read from the data, not from the text of the source: active = GI50 up to about 1.1 µM and inactive = higher.
Key:
Assay in all cases: growth of human tumour cells (NCI), 48 h
786-0 = system: 786-0
A498 = system: A498
A549 = system: A549
ACHN = system: ACHN
BT-549 = system: BT-549
CAKI-1 = system: CAKI-1
CCRF-CEM = system: CCRF-CEM
COLO 205 = system: COLO 205
DU-145 = system: DU-145
EKVX = system: EKVX
HCC 2998 = system: HCC 2998
HCT-116 = system: HCT-116
HCT-15 = system: HCT-15
HL-60 = system: HL-60
HOP-62 = system: HOP-62
HT-29 = system: HT-29
Hs-578T = system: Hs-578T
IGROV-1 = system: IGROV-1
K562 = system: K562
KM12 = system: KM12
LOX IMVI = system: LOX IMVI
M14 = system: M14
MCF7 = system: MCF7
MDA-MB-231 = system: MDA-MB-231
MDA-MB-435 = system: MDA-MB-435
MDA-N = system: MDA-N
MOLT-4 = system: MOLT-4
Malme-3M = system: Malme-3M
NCI-H226 = system: NCI-H226
NCI-H23 = system: NCI-H23
NCI-H460 = system: NCI-H460
NCI-H522 = system: NCI-H522
NCI/ADR-RES = system: NCI/ADR-RES
OVCAR-3 = system: OVCAR-3
OVCAR-4 = system: OVCAR-4
OVCAR-8 = system: OVCAR-8
PC-3 = system: PC-3
RPMI-8226 = system: RPMI-8226
RXF 393 = system: RXF 393
SF-268 = system: SF-268
SF-295 = system: SF-295
SK-MEL-28 = system: SK-MEL-28
SK-MEL-2 = system: SK-MEL-2
SK-MEL-5 = system: SK-MEL-5
SK-OV-3 = system: SK-OV-3
SN12C = system: SN12C
SNB-19 = system: SNB-19
SR = system: SR
SW-620 = system: SW-620
T47D = system: T47D
TK-10 = system: TK-10
U-251 = system: U-251
UACC-257 = system: UACC-257
UACC-62 = system: UACC-62
UO-31 = system: UO-31
HOP-92 = system: HOP-92
OVCAR-5 = system: OVCAR-5
SF-539 = system: SF-539
SNB-75 = system: SNB-75

In the case of `O=C(O)CC(C(=O)O)C1c2ccccc2-c2ccccc21` (stereo not given), the GI50 (786-0) is reported as > 100 µM (inactive), the GI50 (A498) is reported as > 100 µM (inactive) and the GI50 (A549) is reported as 56.4 µM (inactive). The GI50 (ACHN) was 92.9 µM (inactive), the GI50 (BT-549) was > 100 µM (inactive) and the GI50 (CAKI-1) was 66.1 µM (inactive). The GI50 (CCRF-CEM) was 32.4 µM (inactive), the GI50 (COLO 205) was 81.8 µM (inactive) and the GI50 (DU-145) was 17.9 µM (inactive). The GI50 (EKVX) was > 100 µM (inactive), the GI50 (HCC 2998) was > 100 µM (inactive) and the GI50 (HCT-116) was > 100 µM (inactive). The GI50 (HCT-15) was over 100 µM, the GI50 (HL-60) was > 100 µM (inactive) and the GI50 (HOP-62) was 38.2 µM (inactive). For the same molecule, the GI50 (HT-29) was > 100 µM (inactive), the GI50 (Hs-578T) was > 100 µM (inactive) and the GI50 (IGROV-1) was 70 µM (inactive). For the same molecule, the GI50 (K562) was > 100 µM (inactive), the GI50 (KM12) was 66.8 µM (inactive) and the GI50 (LOX IMVI) was 38.5 µM (inactive). For the same molecule, the GI50 (M14) was > 100 µM (inactive), the GI50 (MCF7) was 34.2 µM (inactive) and the GI50 (MDA-MB-231) was > 100 µM (inactive). The GI50 (MDA-MB-435) was 77.1 µM (inactive), the GI50 (MDA-N) was > 100 µM (inactive) and the GI50 (MOLT-4) was 48.2 µM (inactive). For the same molecule, the GI50 (Malme-3M) was 58.6 µM (inactive), the GI50 (NCI-H226) was > 100 µM (inactive) and the GI50 (NCI-H23) was 92.3 µM (inactive). The GI50 (NCI-H460) was 33.6 µM (inactive), the GI50 (NCI-H522) was 47.9 µM (inactive) and the GI50 (NCI/ADR-RES) was > 100 µM (inactive). For the same molecule, the GI50 (OVCAR-3) was 35.5 µM (inactive), the GI50 (OVCAR-4) was > 100 µM (inactive) and the GI50 (OVCAR-8) was 67 µM (inactive). For the same molecule, the GI50 (PC-3) was > 100 µM (inactive), the GI50 (RPMI-8226) was 41.1 µM (inactive) and the GI50 (RXF 393) was > 100 µM (inactive). For the same molecule, the GI50 (SF-268) was 79.6 µM (inactive), the GI50 (SF-295) was 45.1 µM (inactive) and the GI50 (SK-MEL-28) was > 100 µM (inactive). The GI50 (SK-MEL-2) was > 100 µM (inactive), the GI50 (SK-MEL-5) was > 100 µM (inactive) and the GI50 (SK-OV-3) was 66.8 µM (inactive). For the same molecule, the GI50 (SN12C) was > 100 µM (inactive), the GI50 (SNB-19) was 34 µM (inactive) and the GI50 (SR) was 37.5 µM (inactive). The GI50 (SW-620) was > 100 µM (inactive), the GI50 (T47D) was 20.2 µM (inactive) and the GI50 (TK-10) was > 100 µM (inactive). The GI50 (U-251) was 39.3 µM (inactive), the GI50 (UACC-257) was > 100 µM (inactive) and the GI50 (UACC-62) was > 100 µM (inactive). For the same molecule, the GI50 (UO-31) was > 100 µM (inactive).
For `CSc1c(C#N)c2n(c3ccccc13)c1ccccc1[n+]2C`, the GI50 (786-0) was 32.7 µM (inactive), the GI50 (A498) was 21 µM (inactive) and the GI50 (A549) was 24.1 µM (inactive). For the same molecule, the GI50 (ACHN) was 18.2 µM (inactive), the GI50 (BT-549) was 19.7 µM (inactive) and the GI50 (CAKI-1) was 21.3 µM (inactive). For the same molecule, the GI50 (CCRF-CEM) was 16 µM (inactive), the GI50 (COLO 205) was 15 µM (inactive) and the GI50 (DU-145) was 29.2 µM (inactive). For the same molecule, the GI50 (EKVX) was 19.1 µM (inactive), the GI50 (HCC 2998) was 27.9 µM (inactive) and the GI50 (HCT-116) was 6.4 µM (inactive). The GI50 (HCT-15) was 33.4 µM, the GI50 (HL-60) was 20.3 µM (inactive) and the GI50 (HOP-62) was 23.1 µM (inactive). The GI50 (HOP-92) was 33.5 µM (inactive), the GI50 (HT-29) was 21 µM (inactive) and the GI50 (Hs-578T) was 30.5 µM (inactive). For the same molecule, the GI50 (IGROV-1) was 33.2 µM (inactive), the GI50 (KM12) was 28.5 µM (inactive) and the GI50 (LOX IMVI) was 33.1 µM (inactive). The GI50 (M14) was 29.3 µM (inactive), the GI50 (MCF7) was 35.6 µM (inactive) and the GI50 (MDA-MB-231) was 20.7 µM (inactive). For the same molecule, the GI50 (MDA-MB-435) was 20.9 µM (inactive), the GI50 (MDA-N) was 26.2 µM (inactive) and the GI50 (MOLT-4) was 12.9 µM (inactive). The GI50 (Malme-3M) was 16 µM (inactive), the GI50 (NCI-H23) was 25.5 µM (inactive) and the GI50 (NCI-H460) was 26.4 µM (inactive). For the same molecule, the GI50 (NCI-H522) was 12.3 µM (inactive), the GI50 (NCI/ADR-RES) was 25.1 µM (inactive) and the GI50 (OVCAR-3) was 37.4 µM (inactive). The GI50 (OVCAR-4) was 59.3 µM (inactive), the GI50 (OVCAR-5) was 31.4 µM (inactive) and the GI50 (OVCAR-8) was 24 µM (inactive). For the same molecule, the GI50 (PC-3) was 26.7 µM (inactive), the GI50 (RPMI-8226) was 17.3 µM (inactive) and the GI50 (SF-268) was 28.5 µM (inactive). For the same molecule, the GI50 (SF-295) was 34 µM (inactive), the GI50 (SF-539) was 22.4 µM (inactive) and the GI50 (SK-MEL-28) was 23.9 µM (inactive). The GI50 (SK-MEL-2) was 20.3 µM (inactive), the GI50 (SK-MEL-5) was 11.9 µM (inactive) and the GI50 (SN12C) was 18.2 µM (inactive). The GI50 (SNB-19) was > 10 µM (inactive), the GI50 (SNB-75) was 37.2 µM (inactive) and the GI50 (SR) was > 100 µM (inactive). The GI50 (SW-620) was 23.8 µM (inactive), the GI50 (T47D) was 30.1 µM (inactive) and the GI50 (TK-10) was 21.1 µM (inactive). For the same molecule, the GI50 (U-251) was 24.6 µM (inactive), the GI50 (UACC-257) was 19.7 µM (inactive) and the GI50 (UACC-62) was 16.9 µM (inactive). For the same molecule, the GI50 (UO-31) was 18.5 µM (inactive).

— ChEMBL document CHEMBL1201862, “PubChem BioAssay data set” (2004)
